Like-named read-outs stand apart in the source and are kept apart here.
Target: T1, human CB2 receptors (Homo sapiens, UniProt P34972)
T1 construct: expressed in transfected cells; membranes used
Test: Affinity for the human CB2 cannabinoid receptors: inhibition of [3H]-CP55940 binding to transfected CHO-K1 cell membranes
Conditions: [3H]-CP55940 1 nM, CHO-K1 membranes expressing human CB2, Cheng-Prusoff correction
Description: The affinity of the compounds of the invention for the human CB2 receptors is determined by measuring the inhibition of the binding of [^3H]-CP55940 to transfected CHO-K1 cell membrane preparations.
The cells are collected with 0.5 mM of EDTA and centrifuged at 500 g for 5 minutes at 4° C. The pellet is re-suspended in phosphate buffered saline medium (PBS) and centrifuged at 500 g for 5 minutes at 4° C. The pellet is re-suspended in a Tris 50 mM buffer medium at pH 7.4 and centrifuged at 500 g for 5 minutes at 4° C. The cells are lysed by sonication and centrifuged at 39,000 g for 10 minutes at 4° C. The pellet is re-suspended in the Tris 50 mM buffer medium at pH 7.4 and centrifuged at 50,000 g for 10 minutes at 4° C. The membranes obtained in this last pellet are stored at −80° C.
Measurement of the competitive inhibition of the binding of the [^3H]-CP55940 to the CB2 receptors is carried out in duplicate using 96-well polypropylene plates. The cell membranes (10 μg of proteins/well) are incubated with the [^3H]-CP55940 (1 nM) for 60 minutes at 25° C. in a Tris-HCl 50 mM buffer medium, pH 7.4, comprising 0.1% bovine serum albumin (BSA), 5 mM of MgCl2, and 50 μg/ml of bacitracin.
The filters are washed with Tris-HCl 50 mM buffer, pH 7.4 at 0-4° C. and the radioactivity present is determined using a counter (Packard Top Count).
The specific binding is obtained by subtracting the non-specific binding (determined in the presence of 0.1 μM of WIN55212-2 from the total binding). The data are analyzed by computer-assisted non-linear regression (MDL). For each test, a Cheng-Prusoff correction is made in order to convert the IC50 to the inhibition constant, Ki.
where [L] is the concentration of the radioligand used in the test and Kd is the radioligand equilibrium disassociation constant.

T1 sequence (P34972 whole entry): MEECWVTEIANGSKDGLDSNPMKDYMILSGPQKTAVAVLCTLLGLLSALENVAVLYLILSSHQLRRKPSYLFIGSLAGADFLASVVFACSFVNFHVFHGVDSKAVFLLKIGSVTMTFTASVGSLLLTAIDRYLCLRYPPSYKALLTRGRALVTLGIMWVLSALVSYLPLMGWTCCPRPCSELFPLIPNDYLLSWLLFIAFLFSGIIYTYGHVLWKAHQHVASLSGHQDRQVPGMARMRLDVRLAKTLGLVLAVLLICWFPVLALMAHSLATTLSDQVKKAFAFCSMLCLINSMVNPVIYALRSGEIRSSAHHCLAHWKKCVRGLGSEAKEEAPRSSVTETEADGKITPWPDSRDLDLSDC

Row | Structure (SMILES) | Ki (read-out: Ki < 0.5 μM) [µM] | Ki (read-out: Ki < 5 μM) [µM]
1 | CC1(C)CCC(C)(C)c2cc(C(=O)OCCc3ccc(NC(=O)Cc4ccco4)cc3)ccc21 [Example 93] | < 0.5 | < 5
2 | CC1(C)CCC(C)(C)c2cc(C(=O)OCCc3ccc(NC(=O)NC4CCC4)cc3)ccc21 [Example 97] | < 0.5 | < 5
3 | CC1(C)CCC(C)(C)c2cc(-c3nc(CCc4ccc(NC(=O)C5CCC5)cc4)no3)ccc21 [Example 98] | < 0.5 | < 5

Results, then the compound that gave them:

Row | Ki (read-out: Ki < 0.5 μM) [µM] | Ki (read-out: Ki < 5 μM) [µM] | Structure (SMILES)
4 | < 0.5 | < 5 | CCCC(=O)Nc1ccc(CCOC(=O)c2ccc3c(c2)C(C)(C)CCC3(C)C)cc1 [Example 94]
5 | < 0.5 | < 5 | CCC(C)C(=O)Nc1ccc(CCOC(=O)c2ccc3c(c2)C(C)(C)CCC3(C)C)cc1 (stereo not drawn) [Example 95]
6 | < 0.5 | < 5 | CC1(C)CCC(C)(C)c2cc(C(=O)OCCc3ccc(NC(=O)NC4CC4)cc3)ccc21 [Example 96]

Reference: patent US20100056507A1, “PHENYL DERIVATIVES AND THEIR USE AS A MEDICAMENT” (IPSEN PHARMA S.A.S., priority 2006, published 2010)
